According to patent US20240025883A1, “PYRIMIDIN-2-YL SULFONAMIDE DERIVATIVES” (Hoffmann-La Roche Inc., priority 2021, published 2024):

Each compound was assayed against human GPR17 short isoform (Homo sapiens (Human), UniProt Q13304) (assay: GPR17 cAMP assay (hGPR17 cAMP, antagonist mode against EC80 of MDL29,951)). Conditions: CHO-K1 cells stably expressing human GPR17 short isoform; EC80 of agonist MDL29,951; forskolin 15 μM.
Format: cell-based
Description: GPR17 cAMP Assay Protocol:
CHO-K1 cells stably expressing vector containing untagged human GPR17 short isoform (Roche) were cultured at 37° C./5% CO2 in DMEM (Dulbecco's Modified Eagle Medium):F-12 (1:1) supplemented with 10% foetal bovine serum and 400 μg/ml Geneticin.
Changes in intracellular cyclic adenosine monophosphate (cAMP) levels were quantified using the Nano-TRF Detection Assay kit (Roche Diagnostics, Cat. No. 05214386001). This assay allows for direct cAMP quantification in a homogeneous solution, cAMP is detected based on time-resolved fluorescence energy transfer (TR-FRET) and competitive binding of ruthenylated cAMP and endogenous cAMP to an anti-cAMP monoclonal antibody labeled with AlexaFluor-700. The Ruthenium complex serves as the FRET donor and transfers energy to AlexaFluor-700. The FRET signal is inversely proportional to the cAMP concentration.
CHO-GPR17S cells were detached with Accutase and resuspended in assay buffer consisting of Hank's Balanced Salt Solution (HBSS), 10 mM HEPES (4-(2-hydroxyethyl) piperazine-1-ethanesulfonic acid solution) and 0.1% bovine serum albumin (pH 7.4). The cells were seeded in black 384-well plates (Corning) at a density of 10,000 cells/20 μl assay buffer until the addition of compounds.
Test antagonist compounds were serially diluted in dimethyl sulfoxide (DMSO) and spotted in 384-well plates. The compounds were then diluted in HBSS buffer supplemented with an EC80 concentration of MDL29,951 (3-(2-Carboxy-4,6-dichloroindol-3-yl)propionic acid) (GPR17 agonist) plus 3-Isobutyl-1-methylxanthine (IBMX) (0.5 mM final concentration) and added to the cells at room temperature. Forskolin (15 μM final concentration) was added 5 minutes after the test compounds and the cells were incubated at room temperature for 30 minutes. The assay was stopped by adding cAMP detection mix (containing detergents for cell lysis) for 90 minutes at room temperature.
Cellular cAMP was measured using a Paradigm reader (Molecular Devices). The raw data was used to calculate the FRET signal based on the assay's P-factor as per cAMP kit instructions. The data was normalized to the maximal activity of a reference antagonist and dose response curves were fitted to the percent activity of the test compounds using a sigmoidal dose response model (Genedata Screener).

Chain of human GPR17 short isoform (Q13304 29-367): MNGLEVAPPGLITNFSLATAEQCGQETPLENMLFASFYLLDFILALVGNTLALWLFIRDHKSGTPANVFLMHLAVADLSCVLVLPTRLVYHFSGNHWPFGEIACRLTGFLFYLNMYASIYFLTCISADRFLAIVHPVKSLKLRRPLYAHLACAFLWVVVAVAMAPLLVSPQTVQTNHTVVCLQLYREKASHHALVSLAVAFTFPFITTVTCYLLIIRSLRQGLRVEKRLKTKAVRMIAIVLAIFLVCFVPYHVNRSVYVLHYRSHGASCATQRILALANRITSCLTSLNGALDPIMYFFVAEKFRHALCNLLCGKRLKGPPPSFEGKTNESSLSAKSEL

| SMILES | IC50 [nM] |
| --- | --- |
| COc1nc(NS(=O)(=O)c2c[nH]c3c(F)c(Cl)ccc23)ncc1OCCF [Example 2, 6-chloro-7-fluoro-N-[5-(2-fluoroethoxy)-4-methoxy-pyrimidin-2-yl]-1H-indole-3-sulfonamide] | 36 |
| COc1nc(NS(=O)(=O)c2c[nH]c3c(Cl)c(Cl)ccc23)ncc1OCCF [Example 3, 6,7-dichloro-N-[5-(2-fluoroethoxy)-4-methoxy-pyrimidin-2-yl]-1H-indole-3-sulfonamide] | 50 |
| COc1nc(NS(=O)(=O)c2c[nH]c3c(C(F)F)c(Cl)ccc23)ncc1OCCF [Example 4, 6-chloro-7-(difluoromethyl)-N-[5-(2-fluoroethoxy)-4-methoxy-pyrimidin-2-yl]-1H-indole-3-sulfonamide] | 34 |
| COc1nc(NS(=O)(=O)c2c[nH]c3c(OC4CC4)c(Cl)ccc23)ncc1OCCF [Example 5, 6-chloro-7-(cyclopropoxy)-N-[5-(2-fluoroethoxy)-4-methoxy-pyrimidin-2-yl]-1H-indole-3-sulfonamide] | 103 |
| CCOc1cnc(NS(=O)(=O)c2c[nH]c3cc(Cl)ccc23)nc1OC [Example 6, 6-chloro-N-(5-ethoxy-4-methoxy-pyrimidin-2-yl)-1H-indole-3-sulfonamide] | 129 |
| COCCOc1cnc(NS(=O)(=O)c2c[nH]c3cc(Cl)ccc23)nc1OC [Example 7, 6-chloro-N-[4-methoxy-5-(2-methoxyethoxy)pyrimidin-2-yl]-1H-indole-3-sulfonamide] | 403 |
| COc1nc(NS(=O)(=O)c2c[nH]c3cc(Cl)ccc23)ncc1OC(F)F [Example 8, 6-chloro-N-[5-(difluoromethoxy)-4-methoxy-pyrimidin-2-yl]-1H-indole-3-sulfonamide] | 182 |
| COc1nc(NS(=O)(=O)c2c[nH]c3cc(Cl)ccc23)ncc1OCCOC(F)F [Example 9, 6-chloro-N-[5-[2-(difluoromethoxy)ethoxy]-4-methoxy-pyrimidin-2-yl]-1H-indole-3-sulfonamide] | 218 |
| COc1nc(NS(=O)(=O)c2c[nH]c3nc(Cl)ccc23)ncc1OCCF [Example 10, 6-chloro-N-[5-(2-fluoroethoxy)-4-methoxy-pyrimidin-2-yl]-1H-pyrrolo[2,3-b]pyridine-3-sulfonamide] | 96 |
| COc1nc(NS(=O)(=O)c2c[nH]c3cc(Cl)ccc23)nc(OC)c1Cl [Example 11, 6-chloro-N-(5-chloro-4,6-dimethoxy-pyrimidin-2-yl)-1H-indole-3-sulfonamide] | 91 |
| COc1nc(NS(=O)(=O)c2c[nH]c3cc(Cl)ccc23)nc(OC)c1Br [Example 12, N-(5-bromo-4,6-dimethoxy-pyrimidin-2-yl)-6-chloro-1H-indole-3-sulfonamide] | 20 |
| CCOc1nc(NS(=O)(=O)c2c[nH]c3cc(Cl)ccc23)nc(OC)c1Br [Example 13, N-(5-bromo-4-ethoxy-6-methoxy-pyrimidin-2-yl)-6-chloro-1H-indole-3-sulfonamide] | 236 |
| COc1nc(NS(=O)(=O)c2c[nH]c3cc(Cl)ccc23)nc(OCCF)c1Br [Example 14, N-[5-bromo-4-(2-fluoroethoxy)-6-methoxy-pyrimidin-2-yl]-6-chloro-1H-indole-3-sulfonamide] | 215 |
| CCc1cnc(NS(=O)(=O)c2c[nH]c3cc(Cl)ccc23)nc1OC [Example 15, 6-chloro-N-(5-ethyl-4-methoxy-pyrimidin-2-yl)-1H-indole-3-sulfonamide] | 132 |
| CCc1c(OC)nc(NS(=O)(=O)c2c[nH]c3cc(Cl)ccc23)nc1OC [Example 16, 6-chloro-N-(5-ethyl-4,6-dimethoxy-pyrimidin-2-yl)-1H-indole-3-sulfonamide] | 23 |
| COc1nc(NS(=O)(=O)c2c[nH]c3cc(Cl)ccc23)nc(OC)c1C [Example 17, 6-chloro-N-(4,6-dimethoxy-5-methyl-pyrimidin-2-yl)-1H-indole-3-sulfonamide] | 19 |
| COc1nc(NS(=O)(=O)c2c[nH]c3cc(Cl)ccc23)nc(OC(F)F)c1Br [Example 18, N-[5-bromo-4-(difluoromethoxy)-6-methoxy-pyrimidin-2-yl]-6-chloro-1H-indole-3-sulfonamide] | 83 |
| COc1nc(NS(=O)(=O)c2c[nH]c3cc(Cl)ccc23)nc(C2CC2)c1OCC(F)F [Example 19, 6-chloro-N-[4-cyclopropyl-5-(2,2-difluoroethoxy)-6-methoxy-pyrimidin-2-yl]-1H-indole-3-sulfonamide] | 49 |

| SMILES | IC50 [nM] |
| --- | --- |
| COc1nc(NS(=O)(=O)c2c[nH]c3cc(Cl)ccc23)nc(C)c1OCC(F)F [Example 20, 6-chloro-N-[5-(2,2-difluoroethoxy)-4-methoxy-6-methyl-pyrimidin-2-yl]-1H-indole-3-sulfonamide] | 399 |
| COc1nc(NS(=O)(=O)c2c[nH]c3cc(Cl)ccc23)ncc1CCCF [Example 21, 6-chloro-N-[5-(3-fluoropropyl)-4-methoxy-pyrimidin-2-yl]-1H-indole-3-sulfonamide] | 12 |
| COc1nc(NS(=O)(=O)c2c[nH]c3cc(Cl)ccc23)ncc1C#N [Example 23, 6-chloro-N-(5-cyano-4-methoxy-pyrimidin-2-yl)-1H-indole-3-sulfonamide] | 256 |
| COc1nc(NS(=O)(=O)c2csc3cc(Cl)ccc23)ncc1OCCF [Example 24, 6-chloro-n-[5-(2-fluoroethoxy)-4-methoxy-pyrimidin-2-yl]benzothiophene-3-sulfonamide] | 51 |
| COc1nc(NS(=O)(=O)c2c[nH]c3cc(Br)ccc23)ncc1OCCF [Example 25, 6-bromo-N-[5-(2-fluoroethoxy)-4-methoxy-pyrimidin-2-yl]-1H-indole-3-sulfonamide] | 23 |
| COc1nc(NS(=O)(=O)c2c[nH]c3cc(Cl)ccc23)ncc1C [Example 26, 6-chloro-N-(4-methoxy-5-methyl-pyrimidin-2-yl)-1H-indole-3-sulfonamide] | 809 |
| COc1nc(NS(=O)(=O)c2csc3nc(Cl)ccc23)ncc1OCCF [Example 27, 6-chloro-N-[5-(2-fluoroethoxy)-4-methoxy-pyrimidin-2-yl]thieno[2,3-b]pyridine-3-sulfonamide] | 83 |
| COc1nc(NS(=O)(=O)c2c[nH]c3cc(Cl)ccc23)ncc1C1CC1 [Example 28, 6-chloro-n-(5-cyclopropyl-4-methoxy-pyrimidin-2-yl)-1h-indole-3-sulfonamide] | 653 |
| CC#Cc1cnc(NS(=O)(=O)c2c[nH]c3cc(Cl)ccc23)nc1OC [Example 29, 6-chloro-n-(4-methoxy-5-prop-1-ynyl-pyrimidin-2-yl)-1h-indole-3-sulfonamide] | 80 |
| COc1nc(NS(=O)(=O)c2c[nH]c3nc(Br)ccc23)nc(OC)c1Br [Example 30, 6-bromo-n-(5-bromo-4,6-dimethoxy-pyrimidin-2-yl)-1h-pyrrolo[2,3-b]pyridine-3-sulfonamide] | 43 |
| COc1nc(NS(=O)(=O)c2c[nH]c3nc(Cl)ccc23)nc(OC)c1Br [Example 31, N-(5-bromo-4,6-dimethoxy-pyrimidin-2-yl)-6-chloro-1h-pyrrolo[2,3-b]pyridine-3-sulfonamide] | 76 |
| COc1nc(NS(=O)(=O)c2c[nH]c3cc(Cl)ccc23)nc(OC)c1C#N [Example 32, 6-chloro-N-(5-cyano-4,6-dimethoxy-pyrimidin-2-yl)-1H-indole-3-sulfonamide] | 232 |
| Cc1nc(NS(=O)(=O)c2c[nH]c3cc(Cl)ccc23)nc(C)c1Br [Example 33, N-(5-bromo-4,6-dimethyl-pyrimidin-2-yl)-6-chloro-1H-indole-3-sulfonamide] | 569 |
| O=S(=O)(Nc1ncc(OCC(F)F)cn1)c1c[nH]c2cc(Cl)ccc12 [Example 34, 6-chloro-N-[5-(2,2-difluoroethoxy)pyrimidin-2-yl]-1H-indole-3-sulfonamide] | 924 |
| CSc1nc(NS(=O)(=O)c2c[nH]c3cc(Cl)ccc23)ncc1OCC(F)F [Example 35, 6-chloro-N-[5-(2,2-difluoroethoxy)-4-methylsulfanyl-pyrimidin-2-yl]-1H-indole-3-sulfonamide] | 479 |
| COc1nc(NS(=O)(=O)c2c[nH]c3cc(Cl)ccc23)ncc1SC [Example 36, 6-chloro-N-(4-methoxy-5-methylsulfanyl-pyrimidin-2-yl)-1H-indole-3-sulfonamide] | 119 |
| COc1nc(NS(=O)(=O)c2c[nH]c3cc(Cl)ccc23)ncc1SC(F)F [Example 37, 6-chloro-N-[5-(difluoromethylthio)-4-methoxy-pyrimidin-2-yl]-1H-indole-3-sulfonamide] | 68 |
| COc1nc(NS(=O)(=O)c2c[nH]c3cc(Cl)ccc23)ncc1OC1CC1 [Example 38, 6-chloro-N-[5-(cyclopropoxy)-4-methoxy-pyrimidin-2-yl]-1H-indole-3-sulfonamide] | 2680 |
